Laboratory results reported in publication PMC5218480 (PLoS ONE, 2017).

Test system: MV-4-11 cells
Test: Gene expression microarray analysis (Affymetrix PrimeView) and GSEA
Type: cell-based, human
Design: RFU PODN (11730768_x_at) / Fold change /veh PODN (11730768_x_at) / RFU LINC00158 (11744669_a_at) / Fold change /veh LINC00158 (11744669_a_at) / RFU DUSP10 (11751237_a_at) / Fold change /veh DUSP10 (11751237_a_at) / RFU ID3 (11757404_x_at) / Fold change /veh ID3 (11757404_x_at) / RFU PLEKHG5 (11737974_s_at) / Fold change /veh PLEKHG5 (11737974_s_at) / RFU LRRC4B (11730491_at) / Fold change /veh LRRC4B (11730491_at) / RFU GIMAP4 (11747438_a_at) / Fold change /veh GIMAP4 (11747438_a_at) / RFU KRT8 (11758183_x_at) / Fold change /veh KRT8 (11758183_x_at) / RFU CNN1 (11734310_a_at) / Fold change /veh CNN1 (11734310_a_at) / RFU VPS37D (11726825_at) / Fold change /veh VPS37D (11726825_at) / RFU C10orf10 (11716522_x_at) / Fold change /veh C10orf10 (11716522_x_at) / RFU KIR2DL2 /// KIR2DL4 /// KIR2DL5A /// KIR2DL5B /// KIR2DS1 /// KIR2DS2 /// KIR2DS3 /// KIR2DS4 /// KIR3DL3 /// KIR3DL3 /// KIR3DS1 (11738374_at) / Fold change /veh KIR2DL2 /// KIR2DL4 /// KIR2DL5A /// KIR2DL5B /// KIR2DS1 /// KIR2DS2 /// KIR2DS3 /// KIR2DS4 /// KIR3DL3 /// KIR3DL3 /// KIR3DS1 (11738374_at) / RFU C1QL1 (11718748_at) / Fold change /veh C1QL1 (11718748_at) / RFU TMPRSS4 (11747572_a_at) / Fold change /veh TMPRSS4 (11747572_a_at) / RFU HAMP (11756126_x_at) / Fold change /veh HAMP (11756126_x_at) / RFU RNFT2 (11725882_a_at) / Fold change /veh RNFT2 (11725882_a_at) / RFU NR4A2 (11747474_a_at) / Fold change /veh NR4A2 (11747474_a_at) / RFU ABCC12 (11746883_a_at) / Fold change /veh ABCC12 (11746883_a_at) / RFU TMEM136 (11760407_x_at) / Fold change /veh TMEM136 (11760407_x_at) / RFU CLDN22 /// WWC2 (11732394_at) / Fold change /veh CLDN22 /// WWC2 (11732394_at) / RFU HLA-DPB1 (11760878_x_at) / Fold change /veh HLA-DPB1 (11760878_x_at) / RFU SPINT1 (11716480_a_at) / Fold change /veh SPINT1 (11716480_a_at) / RFU GAP43 (11754022_s_at) / Fold change /veh GAP43 (11754022_s_at) / RFU A4GNT (11735810_at) / Fold change /veh A4GNT (11735810_at) / RFU PRB3 (11715151_x_at) / Fold change /veh PRB3 (11715151_x_at) / RFU TUBB4B (11761932_at) / Fold change /veh TUBB4B (11761932_at) / RFU CAPN14 (11732068_a_at) / Fold change /veh CAPN14 (11732068_a_at) / RFU TMCC2 (11721928_a_at) / Fold change /veh TMCC2 (11721928_a_at) / RFU IRGQ (11745062_a_at) / Fold change /veh IRGQ (11745062_a_at) / RFU FAM174B (11720279_a_at) / Fold change /veh FAM174B (11720279_a_at) / RFU TMPRSS4 (11748680_a_at) / Fold change /veh TMPRSS4 (11748680_a_at) / RFU FAM212B (11763350_a_at) / Fold change /veh FAM212B (11763350_a_at) / RFU PLEKHG5 (11743358_a_at) / Fold change /veh PLEKHG5 (11743358_a_at) / RFU ZSCAN30 (11745921_a_at) / Fold change /veh ZSCAN30 (11745921_a_at) / RFU CMKLR1 (11741424_a_at) / Fold change /veh CMKLR1 (11741424_a_at) / RFU LOC101060620 /// MAPK8IP1 (11723275_at) / Fold change /veh LOC101060620 /// MAPK8IP1 (11723275_at) / RFU SPTSSB (11747773_x_at) / Fold change /veh SPTSSB (11747773_x_at) / RFU PRSS12 (11739890_at) / Fold change /veh PRSS12 (11739890_at) / RFU BIN1 (11741810_x_at) / Fold change /veh BIN1 (11741810_x_at) / RFU WNT11 (11732464_a_at) / Fold change /veh WNT11 (11732464_a_at) / RFU C10orf10 (11716521_a_at) / Fold change /veh C10orf10 (11716521_a_at) / RFU C5orf56 (11738089_at) / Fold change /veh C5orf56 (11738089_at) / RFU CYB561 (11721691_x_at) / Fold change /veh CYB561 (11721691_x_at) / RFU ANKRD19P (11752326_a_at) / Fold change /veh ANKRD19P (11752326_a_at) / RFU OR2T12 /// OR2T33 /// OR2T8 (11738714_s_at) / Fold change /veh OR2T12 /// OR2T33 /// OR2T8 (11738714_s_at) / RFU VCAN (11748164_a_at) / Fold change /veh VCAN (11748164_a_at) / RFU JSRP1 (11732532_at) / Fold change /veh JSRP1 (11732532_at) / RFU KRTAP10-11 (11738290_x_at) / Fold change /veh KRTAP10-11 (11738290_x_at) / RFU MYO3A (11730013_a_at) / Fold change /veh MYO3A (11730013_a_at) / RFU EBF3 (11725865_a_at) / Fold change /veh EBF3 (11725865_a_at) / RFU CAMK2N1 (11719241_x_at) / Fold change /veh CAMK2N1 (11719241_x_at) / RFU C5orf56 (11738088_a_at) / Fold change /veh C5orf56 (11738088_a_at) / RFU OLFML3 (11715873_a_at) / Fold change /veh OLFML3 (11715873_a_at) / RFU LOC100653217 /// NTM (11731650_a_at) / Fold change /veh LOC100653217 /// NTM (11731650_a_at) / RFU MAPK11 (11762145_a_at) / Fold change /veh MAPK11 (11762145_a_at) / RFU FIZ1 (11724087_x_at) / Fold change /veh FIZ1 (11724087_x_at) / RFU OASL (11726364_x_at) / Fold change /veh OASL (11726364_x_at) / RFU SOX15 (11748057_x_at) / Fold change /veh SOX15 (11748057_x_at) / RFU CD79A (11719716_a_at) / Fold change /veh CD79A (11719716_a_at) / RFU HIST1H1D (11736915_at) / Fold change /veh HIST1H1D (11736915_at) / RFU CASKIN2 (11723855_a_at) / Fold change /veh CASKIN2 (11723855_a_at) / RFU LOC730098 (11760151_x_at) / Fold change /veh LOC730098 (11760151_x_at) / RFU OR4N2 (11742367_at) / Fold change /veh OR4N2 (11742367_at) / RFU PRRT2 (11749266_a_at) / Fold change /veh PRRT2 (11749266_a_at) / RFU SNX32 (11753110_a_at) / Fold change /veh SNX32 (11753110_a_at) / RFU CDHR5 (11726645_a_at) / Fold change /veh CDHR5 (11726645_a_at) / RFU RCAN1 (11760418_a_at) / Fold change /veh RCAN1 (11760418_a_at) / RFU FAM167A (11723789_a_at) / Fold change /veh FAM167A (11723789_a_at) / RFU FAM26E (11764081_at) / Fold change /veh FAM26E (11764081_at) / RFU ISYNA1 (11749810_s_at) / Fold change /veh ISYNA1 (11749810_s_at) / RFU ACY1 (11761880_at) / Fold change /veh ACY1 (11761880_at) / RFU 11764098_at / Fold change /veh 11764098_at / RFU SAMD14 (11745864_x_at) / Fold change /veh SAMD14 (11745864_x_at) / RFU NPB (11741838_a_at) / Fold change /veh NPB (11741838_a_at) / RFU TMPRSS6 (11731388_a_at) / Fold change /veh TMPRSS6 (11731388_a_at) / RFU KRTAP10-2 (11738614_at) / Fold change /veh KRTAP10-2 (11738614_at) / RFU ARHGAP8 /// PRR5-ARHGAP8 (11727945_x_at) / Fold change /veh ARHGAP8 /// PRR5-ARHGAP8 (11727945_x_at) / RFU KRTAP5-7 /// NADSYN1 (11734609_at) / Fold change /veh KRTAP5-7 /// NADSYN1 (11734609_at) / RFU RASL12 (11751679_a_at) / Fold change /veh RASL12 (11751679_a_at) / RFU CDKN2B (11736163_a_at) / Fold change /veh CDKN2B (11736163_a_at) / RFU PRF1 (11729649_at) / Fold change /veh PRF1 (11729649_at) / RFU, ZNF638 /// ZNF638-IT1 / Fold change vs veh, ZNF638 /// ZNF638-IT1 / RFU, PANK3 / Fold change vs veh, PANK3 / RFU, SH3YL1 / Fold change vs veh, SH3YL1 / RFU, ZEB2 / Fold change vs veh, ZEB2 / RFU, NRIP1 / Fold change vs veh, NRIP1 / RFU, PTTG1IP / Fold change vs veh, PTTG1IP / RFU, CAPN2 / Fold change vs veh, CAPN2 / RFU, MED14 / Fold change vs veh, MED14 / RFU, SNORA58 / Fold change vs veh, SNORA58 / RFU, C1orf63 / Fold change vs veh, C1orf63 / RFU, LRRFIP1 / Fold change vs veh, LRRFIP1 / RFU, NDUFAF7 / Fold change vs veh, NDUFAF7 / RFU, SLC12A2 / Fold change vs veh, SLC12A2 / RFU, IBTK / Fold change vs veh, IBTK / RFU, ESF1 / Fold change vs veh, ESF1 / Fold change vs veh, TMEM50B / RFU, TAOK1 / Fold change vs veh, TAOK1 / RFU, ACBD3 / Fold change vs veh, ACBD3 / RFU, TMA16 / Fold change vs veh, TMA16 / RFU, RWDD3 / Fold change vs veh, RWDD3 / RFU, BCAT1 / Fold change vs veh, BCAT1 / RFU, EDEM3 / Fold change vs veh, EDEM3 / RFU, TMEM33 / Fold change vs veh, TMEM33 / RFU, WDR75 / Fold change vs veh, WDR75 / RFU, AHCTF1 / Fold change vs veh, AHCTF1 / RFU, TFRC / Fold change vs veh, TFRC / RFU, ZDHHC17 / Fold change vs veh, ZDHHC17 / RFU, NOM1 / Fold change vs veh, NOM1 / RFU, ARL8B / Fold change vs veh, ARL8B / RFU, ZBTB11 / Fold change vs veh, ZBTB11 / RFU, TAMM41 / Fold change vs veh, TAMM41 / RFU, KIAA1704 /// LOC100996395 / Fold change vs veh, KIAA1704 /// LOC100996395 / RFU, ING1 / Fold change vs veh, ING1 / RFU, TRMT61B / Fold change vs veh, TRMT61B / RFU, FUBP3 / Fold change vs veh, FUBP3 / RFU, TP53 / Fold change vs veh, TP53 / RFU, TNKS2 / Fold change vs veh, TNKS2 / RFU, ZFP14 / Fold change vs veh, ZFP14 / RFU, ACTR2 / Fold change vs veh, ACTR2 / RFU, PPP3R1 / Fold change vs veh, PPP3R1 / RFU, PIK3R1 / Fold change vs veh, PIK3R1 / RFU, HNRNPA1 / Fold change vs veh, HNRNPA1 / RFU, RNF170 / Fold change vs veh, RNF170 / RFU, ZNF28 / Fold change vs veh, ZNF28 / RFU, RNGTT / Fold change vs veh, RNGTT / RFU, OGT / Fold change vs veh, OGT / RFU, BRD1 / Fold change vs veh, BRD1 / RFU, MARS / Fold change vs veh, MARS / RFU, ZNF655 / Fold change vs veh, ZNF655 / RFU, FAHD1 / Fold change vs veh, FAHD1 / RFU, BDP1 / Fold change vs veh, BDP1 / RFU, LRRCC1 / Fold change vs veh, LRRCC1 / RFU, ARID1A / Fold change vs veh, ARID1A / RFU, ZNF146 / Fold change vs veh, ZNF146 / RFU, ZNF330 / Fold change vs veh, ZNF330 / RFU, GPN3 / Fold change vs veh, GPN3 / RFU, C9orf123 / Fold change vs veh, C9orf123 / RFU, N4BP2L2 / Fold change vs veh, N4BP2L2 / RFU, ARFIP1 / Fold change vs veh, ARFIP1 / RFU, FAM179B / Fold change vs veh, FAM179B / RFU, BCL10 / Fold change vs veh, BCL10 / RFU, UHRF1BP1L / Fold change vs veh, UHRF1BP1L / RFU, BET1 / Fold change vs veh, BET1 / RFU, CNOT2 / Fold change vs veh, CNOT2 / RFU, ZNF268 / Fold change vs veh, ZNF268 / Fold change vs veh, ZNF507 / RFU, DGCR2 / Fold change vs veh, DGCR2 / RFU, WDSUB1 / Fold change vs veh, WDSUB1 / Fold change vs veh, HSP90B1 /// MIR3652 / RFU, ADSS / Fold change vs veh, ADSS / RFU, GK / Fold change vs veh, GK / RFU, ZNF148 / Fold change vs veh, ZNF148 / RFU, TAF9 / Fold change vs veh, TAF9 / RFU, SLC1A5 / Fold change vs veh, SLC1A5 / RFU, SLMO2 / Fold change vs veh, SLMO2 / RFU, ABCC4 / Fold change vs veh, ABCC4 / RFU, LOC101060439 /// RAP1B / Fold change vs veh, LOC101060439 /// RAP1B / RFU, RFX7 / Fold change vs veh, RFX7 / RFU, GTPBP10 / Fold change vs veh, GTPBP10 / RFU, CNEP1R1 / Fold change vs veh, CNEP1R1 / RFU, BIVM-ERCC5 /// ERCC5 / Fold change vs veh, BIVM-ERCC5 /// ERCC5 / RFU, ILF3 / Fold change vs veh, ILF3 / RFU 11762660_at / Fold change /veh 11762660_at / RFU VCAN (11757783_s_at) / Fold change /veh VCAN (11757783_s_at) / RFU DDX43 (11728927_at) / Fold change /veh DDX43 (11728927_at) / RFU KRT8 (11758188_x_at) / Fold change /veh KRT8 (11758188_x_at) / RFU NKD1 (11759106_at) / Fold change /veh NKD1 (11759106_at) / RFU SRD5A1 (11742802_a_at) / Fold change /veh SRD5A1 (11742802_a_at) / RFU TPSAB1 /// TPSB2 (11721975_s_at) / Fold change /veh TPSAB1 /// TPSB2 (11721975_s_at) / RFU GSTM3 (11746129_a_at) / Fold change /veh GSTM3 (11746129_a_at) / RFU IL23R (11737362_x_at) / Fold change /veh IL23R (11737362_x_at) / RFU TMEM51 (11727254_a_at) / Fold change /veh TMEM51 (11727254_a_at) / RFU PIWIL2 (11732686_x_at) / Fold change /veh PIWIL2 (11732686_x_at) / RFU ORM1 (11744905_x_at) / Fold change /veh ORM1 (11744905_x_at) / RFU CCDC152 (11743942_at) / Fold change /veh CCDC152 (11743942_at) / RFU ECM1 (11717891_a_at) / Fold change /veh ECM1 (11717891_a_at) / RFU IL23R (11748794_a_at) / Fold change /veh IL23R (11748794_a_at) / RFU TNFAIP8L3 (11732012_x_at) / Fold change /veh TNFAIP8L3 (11732012_x_at) / RFU MBOAT4 (11741988_at) / Fold change /veh MBOAT4 (11741988_at) / RFU 11764193_at / Fold change /veh 11764193_at / RFU TMEM53 (11763286_at) / Fold change /veh TMEM53 (11763286_at) / RFU MAGEB2 (11727129_at) / Fold change /veh MAGEB2 (11727129_at) / RFU TMEM200A (11744735_a_at) / Fold change /veh TMEM200A (11744735_a_at) / RFU CCDC152 (11751479_a_at) / Fold change /veh CCDC152 (11751479_a_at) / RFU FAM211A (11726209_a_at) / Fold change /veh FAM211A (11726209_a_at) / RFU RGS16 (11746705_a_at) / Fold change /veh RGS16 (11746705_a_at) / RFU VCAN (11755009_s_at) / Fold change /veh VCAN (11755009_s_at) / RFU RHOB (11743442_s_at) / Fold change /veh RHOB (11743442_s_at) / RFU RGS16 (11720943_a_at) / Fold change /veh RGS16 (11720943_a_at) / RFU RGS16 (11720944_at) / Fold change /veh RGS16 (11720944_at) / RFU, VPS4B / Fold change vs veh, VPS4B / RFU, CREB1 / Fold change vs veh, CREB1 / RFU, DNAJC13 / Fold change vs veh, DNAJC13 / RFU, GNAQ / Fold change vs veh, GNAQ / RFU, CDK5R1 / Fold change vs veh, CDK5R1 / RFU, ZRANB3 / Fold change vs veh, ZRANB3 / RFU, CUL4A / Fold change vs veh, CUL4A / RFU, CCNY / Fold change vs veh, CCNY / RFU, UFL1 / Fold change vs veh, UFL1 / RFU, COG3 / Fold change vs veh, COG3 / RFU, DIAPH2 / Fold change vs veh, DIAPH2 / RFU, SKA2 / Fold change vs veh, SKA2 / RFU, AFF3 / Fold change vs veh, AFF3 / RFU, LMF1 / Fold change vs veh, LMF1 / RFU, IPO11 / Fold change vs veh, IPO11 / RFU, DFFB / Fold change vs veh, DFFB / RFU, FOXP1 / Fold change vs veh, FOXP1 / RFU, CARD8 / Fold change vs veh, CARD8 / RFU, STRN3 / Fold change vs veh, STRN3 / RFU, ADK / Fold change vs veh, ADK / RFU, RASSF2 / Fold change vs veh, RASSF2 / RFU, WIPF1 / Fold change vs veh, WIPF1 / RFU, LARP1B / Fold change vs veh, LARP1B / RFU, RASA1 / Fold change vs veh, RASA1 / RFU, RB1 / Fold change vs veh, RB1 / RFU, PPFIA1 / Fold change vs veh, PPFIA1 / RFU, MAT2A / Fold change vs veh, MAT2A / RFU, CCT5 / Fold change vs veh, CCT5 / RFU, WDR92 / Fold change vs veh, WDR92 / RFU, CUX1 / Fold change vs veh, CUX1 / RFU, TTC7A / Fold change vs veh, TTC7A / RFU, TMEM135 / Fold change vs veh, TMEM135 / RFU, DEPTOR / Fold change vs veh, DEPTOR / RFU, CPM / Fold change vs veh, CPM / RFU, DNAJB6 / Fold change vs veh, DNAJB6 / RFU, CACNA2D3 / Fold change vs veh, CACNA2D3 / RFU, DTX4 / Fold change vs veh, DTX4 / RFU, TFCP2 / Fold change vs veh, TFCP2 / RFU, GMCL1 /// GMCL1P1 / Fold change vs veh, GMCL1 /// GMCL1P1 / RFU, AEBP2 / Fold change vs veh, AEBP2 / RFU, SNHG1 /// SNORD22 /// SNORD25 /// SNORD26 /// SNORD27 /// SNORD28 /// SNORD29 /// SNORD31 / Fold change vs veh, SNHG1 /// SNORD22 /// SNORD25 /// SNORD26 /// SNORD27 /// SNORD28 /// SNORD29 /// SNORD31 / Fold change (Aza/veh), C12orf56 (ProbeSet 11735607_a_at) / Fold change (ACY-1035/veh), C12orf56 (ProbeSet 11735607_a_at) / Fold change (Aza/veh), FGFR1OP (ProbeSet 11751329_s_at) / Fold change (ACY-1035/veh), FGFR1OP (ProbeSet 11751329_s_at) / Fold change (Aza/veh), VPS36 (ProbeSet 11739960_a_at) / Fold change (ACY-1035/veh), VPS36 (ProbeSet 11739960_a_at) / RFU SYPL1 (11715823_x_at) / Fold change /veh SYPL1 (11715823_x_at) / RFU IGFBP7 (11715501_s_at) / Fold change /veh IGFBP7 (11715501_s_at) / RFU REEP3 (11722064_at) / Fold change /veh REEP3 (11722064_at) / RFU IGLL1 (11728026_x_at) / Fold change /veh IGLL1 (11728026_x_at): dose or concentration left out as unconfirmed
Conditions: MV-4-11 cells, 48 hours

How did the “RFU C5orf56 (11738089_at)” value turn out when Nc1ncn([C@@H]2O[C@H](CO)[C@@H](O)[C@H]2O)c(=O)n1 [azacitidine] was run?
The value was 11.14 RFU.
